The text below walks through data of paper PMC9532951, “Identification and characterization of a novel SNAT2 (SLC38A2) inhibitor reveals synergy with glucose transport inhibition in cancer cells” (Frontiers in Pharmacology, 2022).

The target in assay [1] is T1, SNAT1 and SNAT2 (Homo sapiens, UniProt Q96QD8).
T1 construct: endogenous in cells; host or cells: HCC1806 clone C10 (ASCT2ko) and clone D126 (ASCT2ko, SNAT2ko), amino acid depleted for 24 h
T1 sequence (Q96QD8 1-506): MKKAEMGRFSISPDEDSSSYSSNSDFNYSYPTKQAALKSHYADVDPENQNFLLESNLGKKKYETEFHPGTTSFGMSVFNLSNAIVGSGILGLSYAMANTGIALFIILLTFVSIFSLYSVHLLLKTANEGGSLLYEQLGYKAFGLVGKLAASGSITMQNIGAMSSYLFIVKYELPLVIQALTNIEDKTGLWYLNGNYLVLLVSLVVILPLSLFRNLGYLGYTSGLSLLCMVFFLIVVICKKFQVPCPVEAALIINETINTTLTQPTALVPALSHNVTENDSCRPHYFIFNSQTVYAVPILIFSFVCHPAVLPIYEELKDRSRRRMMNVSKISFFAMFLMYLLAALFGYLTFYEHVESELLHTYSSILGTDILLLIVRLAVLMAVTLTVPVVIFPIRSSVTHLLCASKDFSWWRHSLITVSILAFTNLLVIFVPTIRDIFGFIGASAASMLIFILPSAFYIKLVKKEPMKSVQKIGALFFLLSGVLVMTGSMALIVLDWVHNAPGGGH
The assay is described as follows: FMP assay in HCC1806 clones C10 (ASCT2ko) and D126 (ASCT2ko, SNAT2ko). Format: cell-based. The following applies: 10 mM; HCC1806 wildtype and C10 cells. As to the method:
(§1) To delete the SNAT2 (SLC38A2) gene in modified HCC1806 cells (clone C10 nullizygous for ASCT2 ([Broer et al., 2019])), the GeneArt CRISPR Nuclease Vector with OFP Reporter Kit (Invitrogen; A21174) was employed and complementary 19–20 bp long single-stranded oligonucleotides with overhangs were designed to produce a guide RNA (gRNA) for the Cas9 nuclease that would target exon 7 of the SNAT2 gene. Colonies were analysed by sequencing using the U6 primer included in the GeneArt CRISPR Nuclease Vector with OFP Reporter kit. Plasmids that contained the correct CRISPR nuclease construct were then used to transfect HCC1806 cells with Lipofectamine 2000 (Invitrogen). Prior to transfection, medium was replaced with 2 ml of fresh DMEM/F-12 (supplemented with 10% heat-inactivated FBS and 2 mM glutamine). Plasmid DNA (4 µg) and 10 µL of Lipofectamine 2000 were incubated separately for 5 min at room temperature in 500 µl of Opti-MEM (Invitrogen) before being combined and incubated for a further 30 min at room temperature. The DNA-Lipofectamine complex was then added to the cells in a dropwise manner and allowed to be absorbed over 6 h at 37°C, after which the medium was renewed with fresh DMEM/F-12. Cells were checked for red fluorescence using an EVOS FL cell imaging system (Thermo Fisher Scientific) 48–72 h post transfection. Subsequently, cells were detached using 0.25% Trypsin EDTA. After harvesting and washing thrice with PBS (pH 7.4), cells were resuspended in PBS (pH 7.4) supplemented with 5 mM glucose and 1% dialysed and heat inactivated FBS and passed through a 100 μm cell strainer. The cell filtrate was then pelleted once more and resuspended in the same buffer. Cells were sorted using an ARIA II FACS machine and individually dispensed into the wells of a 96-well plate. Nullizygous clones were identified using a series of assays including the FLIPR membrane potential assay, western blotting and sequencing.
(§2) The FLIPR Membrane Potential Blue Explorer Kit (Molecular Devices) was used to characterise inhibitors and to optimise a high-throughput compound screen. Cells were seeded at approximately 60,000 cells/well on a 96-well plate and allowed to attach and grow overnight in a cell incubator. The next day, the cells were washed once with mHBSS and incubated in a starvation medium (composed of mHBSS with 1% dialysed heat-inactivated FBS, 23 mM NaHCO3, 10 U/ml penicillin and 10 μg/ml streptomycin) for 24 h. Cells were then washed once with mHBSS and incubated with 50 µl of the mHBSS-resuspended FMP assay dye and 50 µl of mHBSS (with or without inhibitors) and incubated at room temperature for 30 min. The plate was then placed in an EnSpire Multimode plate reader (PerkinElmer) and four sequential measurements of fluorescence were recorded as a baseline reference. Immediately after the baseline measurements were taken, 25 µl of 5 mM glutamine dissolved in mHBSS was injected into each well and the plate was shaken orbitally for 5 s before a series of consecutive fluorescence measurements were taken. The excitation wavelength was set to 530 nm and the emission was detected at 565 nm. The Δ fluorescent signal reported in the figures was taken 30 s after substrate addition. After the assay was complete, the liquid content of the plate was carefully removed, and the cell monolayer inspected to ensure it remained intact throughout the course of the assay.

For assay [2], the target named is T2, SNAT1 and SNAT2 (Homo sapiens, UniProt Q9H2H9).
T2 construct: endogenous in cells; host or cells: HCC1806 clone C10 (ASCT2ko) and clone D126 (ASCT2ko, SNAT2ko), amino acid depleted for 24 h
T2 sequence (Q9H2H9 1-487): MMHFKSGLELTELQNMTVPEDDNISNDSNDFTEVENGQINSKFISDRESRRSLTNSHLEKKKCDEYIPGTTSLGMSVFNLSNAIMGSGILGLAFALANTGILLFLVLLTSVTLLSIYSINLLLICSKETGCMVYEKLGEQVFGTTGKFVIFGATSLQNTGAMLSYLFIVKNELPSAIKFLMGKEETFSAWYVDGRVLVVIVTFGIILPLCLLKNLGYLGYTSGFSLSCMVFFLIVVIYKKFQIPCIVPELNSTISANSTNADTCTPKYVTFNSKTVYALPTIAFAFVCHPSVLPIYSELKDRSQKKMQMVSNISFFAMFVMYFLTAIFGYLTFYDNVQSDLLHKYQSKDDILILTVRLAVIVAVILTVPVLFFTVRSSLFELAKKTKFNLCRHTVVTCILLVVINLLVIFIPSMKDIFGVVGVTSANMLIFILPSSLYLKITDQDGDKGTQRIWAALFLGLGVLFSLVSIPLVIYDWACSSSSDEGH
The description is as above. It is filed as cell-based. The following applies: D126 cells. As for the experimental part: as §1, §2

The structures appear in SMILES notation. Values joined by “and” are separate entries in the source; they are usually repeats but may differ in a detail not shown here. Equal entries are not always repeated.

For the molecule `C[N+](C)(C)CC(=O)O` [Betaine, betaine], on SNAT1 and SNAT2 [1], the “FMP signal as substrate” value was “strong FMP signal”.
As to `N[C@@H](CCC(=O)NO)C(=O)O` [GHX, L-glutamic acid γ-monohydroxamate], the “block of glutamine (1 mM) FMP signal” value at SNAT1 and SNAT2 [2] is listed as “still blocked”. Moreover, the FMP fluorescence on SNAT1 and SNAT2 [2] (time 0, replicates 1-10) was 22435 and 17495 and 17429 and 17955 and 18811 and 18812 and 18737 and 18055 and 17050 and 17347; at SNAT1 and SNAT2 [2] (time 12, replicates 1-10) it was 20191; on SNAT1 and SNAT2 [2] (time 30, replicates 1-10) it was 20609 and 15706 and 15219 and 15815 and 16260 and 16292 and 16468 and 15594 and 14527 and 15164; on SNAT1 and SNAT2 [2] (time 40, replicates 1-10), 20541 and 15480 and 15193 and 15674 and 16277 and 16260 and 16583 and 15586 and 14696 and 15217; at SNAT1 and SNAT2 [2] (time 50, replicates 1-10), 20610 and 15277 and 15074 and 15756 and 16154 and 16238 and 16249 and 15554 and 14656 and 15194; on SNAT1 and SNAT2 [2] (time 60, replicates 1-10), 20690 and 15464 and 15031 and 15758 and 16045 and 16010 and 16126 and 15471 and 14546 and 15121. Further, the FMP fluorescence at SNAT1 and SNAT2 [2] (time 70, replicates 1-10) is 20527 and 15130 and 14967 and 15329 and 16082 and 16096 and 16209 and 15213 and 14316 and 15085; at SNAT1 and SNAT2 [2] (time 80, replicates 1-10) it was 20404 and 15072 and 14875 and 15595 and 16009 and 15975 and 15951 and 15190 and 14182 and 15130; on SNAT1 and SNAT2 [2] (time 90, replicates 1-10) it was 20524 and 15134 and 14788 and 15354 and 15654 and 15782 and 15863 and 15065 and 14296; at SNAT1 and SNAT2 [2] (time -10, replicates 1-10), 22909 and 17766 and 17765 and 18446 and 19408 (2×) and 19505 and 18694 and 17349 and 17632; on SNAT1 and SNAT2 [2] (time -20, replicates 1-10), 23556 and 18431 and 18738 and 19301 and 20185 and 20456 and 20335 and 19156 and 18269 and 18621.
